Measured values as given in patent US9090624B2, “Aromatic bycyclic derivatives as CXCR4 receptor modulators” (Allergan, Inc., priority 2011, dated 2015).

Target: T1, human CXCR4 receptor (Homo sapiens, UniProt P61073)
T1 construct: expressed in transfected cells
Assay: Measurement of intracellular Ca+2 responses (FLIPR), antagonism of the SDF-1α response
Format: cell-based
Conditions: HEK-Gqi5 cells stably expressing human CXCR4; for IC50: antagonism of SDF-1α at 1.9 nM (EC65), Fluo-4 calcium, FLIPR; for inhibition: percent antagonism of SDF-1α at 1.9 nM (EC65), test drug 2.44 nM to 40,000 nM
Protocol: Measurement of Intracellular Ca^+2 Responses for CXCR4 Compounds
HEK-Gqi5 cells stably expressing the human CXCR4 receptor were utilized for these studies. The growth media for the CXCR4 receptor expressing cell line was DMEM high glucose medium supplemented with 10% fetal bovine serum (FBS), 1% antibiotic-antimycotic, 50 ug/ml hygromycin B, and 400 μg/ml geneticin. Ten thousand cells per well were plated into 384-well poly-D-lysine coated plates one day prior to use. On the day of the experiment, the cells were washed twice with Hank's Balanced Salt Solution supplemented with 20 mM hepes (HBSS/hepes buffer). The cells were then dye loaded with 2 uM Fluo-4 diluted in the HBSS/Hepes buffer and incubated at 37° C. for 40 minutes. Extracellular dye was removed by washing the cell plates four times prior to placing the plates in the FLIPR (Fluorometric Imaging Plate Reader, Molecular Devices). Ligands were diluted in HBSS/Hepes buffer and prepared in 384-well microplates. The positive control, stromal-cell derived factor-1 (SDF-1α), was diluted in HBSS/Hepes buffer with 4 mg/ml fatty acid free bovine serum albumin. Two drug additions were made by the FLIPR. The first drug addition was the test drug in concentrations ranging from 2.44 nM to 40,000 nM. After this addition, fluorescent measurements were taken. Any calcium release in response to this drug addition represents agonist activity of the compounds. The second drug addition was SDF-1α at a final concentration of 1.9 nM (EC65). Fluorescence measurements were also taken after this second drug addition and were used to determine the ability of the test compounds to antagonize the SDF-1α response. Results were expressed as EC50 and efficacy values, as well as IC50 and percent antagonism values. As controls, SDF-1α (CXCR4 agonist) and AMD3100 (CXCR4 antagonist) dose-response curves were also determined in each study.

T1 sequence (P61073 whole entry): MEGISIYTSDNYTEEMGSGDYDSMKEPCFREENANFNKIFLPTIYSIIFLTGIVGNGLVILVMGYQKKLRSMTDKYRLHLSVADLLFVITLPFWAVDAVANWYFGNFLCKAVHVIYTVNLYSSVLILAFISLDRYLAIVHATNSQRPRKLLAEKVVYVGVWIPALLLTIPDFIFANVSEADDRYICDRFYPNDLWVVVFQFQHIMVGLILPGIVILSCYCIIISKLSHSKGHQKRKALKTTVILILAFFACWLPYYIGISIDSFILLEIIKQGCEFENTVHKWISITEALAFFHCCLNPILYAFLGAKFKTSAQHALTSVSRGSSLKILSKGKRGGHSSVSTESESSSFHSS

| IC50 | inhibition | SMILES |
| --- | --- | --- |
| 110 nM | 95% | CN(C)CCNc1nc(NC2CCN(Cc3c(OCCN(C)C)cccc3N(C)C)CC2)c2sccc2n1 [Compound 2] |
| 2920 nM | 93% | COc1cccc(N(C)C)c1CN1CCC(Nc2nc(NCCN(C)C)nc3c2CCC3)CC1 [Compound 1, N^2-[2-(Dimethylamino)ethyl]-N^4-{1-[2-(dimethylamino)-6-methoxybenzyl]piperidin-4-yl}-6,7-dihydro-5H-cyclopenta[d]pyrimidine-2,4-diamine] |
